Data from the NIST ThermoML archive (doi:10.1016/j.jct.2015.01.004).
Values joined by “and” are separate entries in the source; they are usually repeats but may differ in a detail not shown here. Equal values may be shown once.

Experiment: molar heat capacity at constant pressure; xn = mol fraction of the nth substance listed
Details: 100 kPa

[Si] [silicon] + [Li]
Details | molar heat capacity at constant pressure
46.23 K, Crystal of intercomponent compound 2, relaxation calorimeter, x2 = 0.804 | 2.145 J/K/mol and 2.142 J/K/mol
48.69 K, Crystal of intercomponent compound 1, relaxation calorimetry, x2 = 0.81 | 2.259 J/K/mol
48.7 K, Crystal of intercomponent compound 2, relaxation calorimeter, x2 = 0.804 | 2.429 J/K/mol
48.72 K, Crystal of intercomponent compound 2, relaxation calorimeter, x2 = 0.804 | 2.429 J/K/mol
50 K, Crystal of intercomponent compound 1, relaxation calorimetry + DSC, x2 = 0.81 | 2.41 J/K/mol
50 K, Crystal of intercomponent compound 2, relaxation calorimetry + DSC, x2 = 0.804 | 2.61 J/K/mol
51.29 K, Crystal of intercomponent compound 1, relaxation calorimetry, x2 = 0.81 | 2.56 J/K/mol
51.3 K, Crystal of intercomponent compound 2, relaxation calorimeter, x2 = 0.804 | 2.74 J/K/mol
54.03 K, Crystal of intercomponent compound 1, relaxation calorimetry, x2 = 0.81 | 2.89 J/K/mol
54.03 K, Crystal of intercomponent compound 2, relaxation calorimeter, x2 = 0.804 | 3.08 J/K/mol
54.04 K, Crystal of intercomponent compound 2, relaxation calorimeter, x2 = 0.804 | 3.08 J/K/mol
56.91 K, Crystal of intercomponent compound 1, relaxation calorimetry, x2 = 0.81 | 3.26 J/K/mol
56.92 K, Crystal of intercomponent compound 2, relaxation calorimeter, x2 = 0.804 | 3.45 J/K/mol
59.95 K, Crystal of intercomponent compound 1, relaxation calorimetry, x2 = 0.81 | 3.65 J/K/mol
59.96 K, Crystal of intercomponent compound 2, relaxation calorimeter, x2 = 0.804 | 3.84 J/K/mol
60 K, Crystal of intercomponent compound 1, relaxation calorimetry + DSC, x2 = 0.81 | 3.63 J/K/mol
60 K, Crystal of intercomponent compound 2, relaxation calorimetry + DSC, x2 = 0.804 | 3.81 J/K/mol
63.15 K, Crystal of intercomponent compound 1, relaxation calorimetry, x2 = 0.81 | 4.08 J/K/mol
63.17 K, Crystal of intercomponent compound 2, relaxation calorimeter, x2 = 0.804 | 4.27 J/K/mol
63.18 K, Crystal of intercomponent compound 2, relaxation calorimeter, x2 = 0.804 | 4.27 J/K/mol
66.53 K, Crystal of intercomponent compound 1, relaxation calorimetry, x2 = 0.81 | 4.52 J/K/mol
66.54 K, Crystal of intercomponent compound 2, relaxation calorimeter, x2 = 0.804 | 4.72 J/K/mol
66.55 K, Crystal of intercomponent compound 2, relaxation calorimeter, x2 = 0.804 | 4.73 J/K/mol
70 K, Crystal of intercomponent compound 1, relaxation calorimetry + DSC, x2 = 0.81 | 5.02 J/K/mol
70 K, Crystal of intercomponent compound 2, relaxation calorimetry + DSC, x2 = 0.804 | 5.21 J/K/mol
70.08 K, Crystal of intercomponent compound 1, relaxation calorimetry, x2 = 0.81 | 5.02 J/K/mol
70.1 K, Crystal of intercomponent compound 2, relaxation calorimeter, x2 = 0.804 | 5.22 J/K/mol
70.11 K, Crystal of intercomponent compound 2, relaxation calorimeter, x2 = 0.804 | 5.22 J/K/mol
73.83 K, Crystal of intercomponent compound 1, relaxation calorimetry, x2 = 0.81 | 5.54 J/K/mol
73.84 K, Crystal of intercomponent compound 2, relaxation calorimeter, x2 = 0.804 | 5.75 J/K/mol
73.86 K, Crystal of intercomponent compound 2, relaxation calorimeter, x2 = 0.804 | 5.75 J/K/mol
77.77 K, Crystal of intercomponent compound 1, relaxation calorimetry, x2 = 0.81 | 6.09 J/K/mol
77.78 K, Crystal of intercomponent compound 2, relaxation calorimeter, x2 = 0.804 | 6.31 J/K/mol
77.8 K, Crystal of intercomponent compound 2, relaxation calorimeter, x2 = 0.804 | 6.32 J/K/mol
80 K, Crystal of intercomponent compound 1, relaxation calorimetry + DSC, x2 = 0.81 | 6.43 J/K/mol
80 K, Crystal of intercomponent compound 2, relaxation calorimetry + DSC, x2 = 0.804 | 6.65 J/K/mol
81.93 K, Crystal of intercomponent compound 1, relaxation calorimetry, x2 = 0.81 | 6.66 J/K/mol
81.94 K, Crystal of intercomponent compound 2, relaxation calorimeter, x2 = 0.804 | 6.9 J/K/mol
81.95 K, Crystal of intercomponent compound 2, relaxation calorimeter, x2 = 0.804 | 6.9 J/K/mol
86.31 K, Crystal of intercomponent compound 1, relaxation calorimetry, x2 = 0.81 | 7.27 J/K/mol
86.32 K, Crystal of intercomponent compound 2, relaxation calorimeter, x2 = 0.804 | 7.53 J/K/mol
86.33 K, Crystal of intercomponent compound 2, relaxation calorimeter, x2 = 0.804 | 7.53 J/K/mol
90 K, Crystal of intercomponent compound 1, relaxation calorimetry + DSC, x2 = 0.81 | 7.82 J/K/mol
90 K, Crystal of intercomponent compound 2, relaxation calorimetry + DSC, x2 = 0.804 | 8.08 J/K/mol
90.93 K, Crystal of intercomponent compound 1, relaxation calorimetry, x2 = 0.81 | 7.89 J/K/mol
90.93 K, Crystal of intercomponent compound 2, relaxation calorimeter, x2 = 0.804 | 8.14 J/K/mol
90.95 K, Crystal of intercomponent compound 2, relaxation calorimeter, x2 = 0.804 | 8.17 J/K/mol
91 K, Crystal of intercomponent compound 2, relaxation calorimeter, x2 = 0.804 | 8.16 J/K/mol
91.01 K, Crystal of intercomponent compound 1, relaxation calorimetry, x2 = 0.81 | 7.88 J/K/mol
91.02 K, Crystal of intercomponent compound 2, relaxation calorimeter, x2 = 0.804 | 8.18 J/K/mol
95.01 K, Crystal of intercomponent compound 1, relaxation calorimetry, x2 = 0.81 | 8.41 J/K/mol
95.02 K, Crystal of intercomponent compound 2, relaxation calorimeter, x2 = 0.804 | 8.71 J/K/mol
95.04 K, Crystal of intercomponent compound 2, relaxation calorimeter, x2 = 0.804 | 8.73 J/K/mol
99.06 K, Crystal of intercomponent compound 2, relaxation calorimeter, x2 = 0.804 | 9.29 J/K/mol
99.07 K, Crystal of intercomponent compound 1, relaxation calorimetry, x2 = 0.81 | 8.94 J/K/mol
99.08 K, Crystal of intercomponent compound 2, relaxation calorimeter, x2 = 0.804 | 9.32 J/K/mol
100 K, Crystal of intercomponent compound 1, relaxation calorimetry + DSC, x2 = 0.81 | 9.14 J/K/mol
100 K, Crystal of intercomponent compound 2, relaxation calorimetry + DSC, x2 = 0.804 | 9.44 J/K/mol
103.16 K, Crystal of intercomponent compound 1, relaxation calorimetry, x2 = 0.81 | 9.52 J/K/mol
103.16 K, Crystal of intercomponent compound 2, relaxation calorimeter, x2 = 0.804 | 9.83 J/K/mol
103.18 K, Crystal of intercomponent compound 2, relaxation calorimeter, x2 = 0.804 | 9.87 J/K/mol
107.24 K, Crystal of intercomponent compound 1, relaxation calorimetry, x2 = 0.81 | 10.04 J/K/mol
107.25 K, Crystal of intercomponent compound 2, relaxation calorimeter, x2 = 0.804 | 10.37 J/K/mol
107.26 K, Crystal of intercomponent compound 2, relaxation calorimeter, x2 = 0.804 | 10.4 J/K/mol
110 K, Crystal of intercomponent compound 1, relaxation calorimetry + DSC, x2 = 0.81 | 10.39 J/K/mol
110 K, Crystal of intercomponent compound 2, relaxation calorimetry + DSC, x2 = 0.804 | 10.73 J/K/mol
111.29 K, Crystal of intercomponent compound 1, relaxation calorimetry, x2 = 0.81 | 10.53 J/K/mol
111.29 K, Crystal of intercomponent compound 2, relaxation calorimeter, x2 = 0.804 | 10.88 J/K/mol
111.31 K, Crystal of intercomponent compound 2, relaxation calorimeter, x2 = 0.804 | 10.88 J/K/mol
115.39 K, Crystal of intercomponent compound 1, relaxation calorimetry, x2 = 0.81 | 11.05 J/K/mol
115.4 K, Crystal of intercomponent compound 2, relaxation calorimeter, x2 = 0.804 | 11.39 J/K/mol
115.41 K, Crystal of intercomponent compound 2, relaxation calorimeter, x2 = 0.804 | 11.41 J/K/mol
119.47 K, Crystal of intercomponent compound 1, relaxation calorimetry, x2 = 0.81 | 11.55 J/K/mol
119.47 K, Crystal of intercomponent compound 2, relaxation calorimeter, x2 = 0.804 | 11.87 J/K/mol
119.49 K, Crystal of intercomponent compound 2, relaxation calorimeter, x2 = 0.804 | 11.92 J/K/mol
120 K, Crystal of intercomponent compound 1, relaxation calorimetry + DSC, x2 = 0.81 | 11.56 J/K/mol
120 K, Crystal of intercomponent compound 2, relaxation calorimetry + DSC, x2 = 0.804 | 11.93 J/K/mol
123.51 K, Crystal of intercomponent compound 1, relaxation calorimetry, x2 = 0.81 | 12 J/K/mol
123.51 K, Crystal of intercomponent compound 2, relaxation calorimeter, x2 = 0.804 | 12.35 J/K/mol
123.53 K, Crystal of intercomponent compound 2, relaxation calorimeter, x2 = 0.804 | 12.4 J/K/mol
127.61 K, Crystal of intercomponent compound 1, relaxation calorimetry, x2 = 0.81 | 12.47 J/K/mol
